Reference: US8129532B2, “Amino(oligo)thiophene dyes, preparation thereof, and optical methods of use” (The University of Connecticut, priority 2007, dated 2012)

Assays:
[1] = system: layer V pyramidal neurons; experiment: Voltage-sensitive dye imaging of action potentials in intracellularly stained pyramidal neurons in brain slices; type: cell-based, Sprague Dawley rats
From the text: Sprague Dawley rats (P21-42) were anesthetized with isoflurane, decapitated, and the brains were removed with the head immersed in ice-cold, artificial cerebrospinal fluid (ACSF), according to an animal protocol approved by the Center for Laboratory Animal Care, University of Connecticut. Brain slices (300 μm) were cut from frontal lobes in the coronal plane. ACSF contained (in mM) 125 NaCl, 26 NaHCO3, 10 glucose, 2.3 KCl, 1.26 KH2PO4, 2 CaCl2 and 1 MgSO4, pH 7.4. Whole-cell recordings were made from visually identified layer V pyramidal neurons on the medial part of the slice. Intracellular solution contained (in mM) 135 K-gluconate, 2 MgCl2, 3 Na2-ATP, 10 Na2-phosphocreatine, 0.3 Na2-GTP and 10 Hepes (pH 7.3, adjusted with KOH). Electrical signals were amplified with Multiclamp 700A and digitized with two input boards: (1) Digidata Series 1322A (Axon Instruments) at 5 kHz, and (2) Neuroplex (RedShirtImaging) at 2.7 kHz sampling rate. Only cells with a membrane potential more hyperpolarized than −50 mV, and action potential amplitudes exceeding 80 mV (measured from the base line) were included in this study. All experiments were performed on layer 5 cortical pyramidal cells at 34° C.
Blue dyes were stored in ethanol stock solution at −20° C. On the day of the recording blue dyes were dissolved in standard K-gluconate based intracellular solution. A loading pipette was filled with two varieties of the same intracellular solution; one with and one without dye. Dye-free solution was occupying the very tip of the pipette, while the back of the pipette lumen was microloaded with dye-rich solution. The purpose of dye-free solution in the tip of the patch pipette was to prevent dye-leak during the maneuver through brain slice tissue. VSD styryl dyes are lipophilic and bind indiscriminately and irreversibly to all membranes around the neuron of interest. Even a small amount of dye that leaks out of the pipette during the formation of the gigaohm seal, can generate strong fluorescent background. Fluorescent light emanating from surrounding tissue has a devastating effect on dendritic optical signals. Elimination of the background fluorescence is critical for dendritic voltage imaging. How much dye-free solution one should put in the tip depends on time period between the submersion of the patch pipette into the recording chamber and formation of the gigaohm seal. The faster one can perform this maneuver the less dye-free solution she needs to achieve optimal staining.
Blue VSD were injected at room temperature for 25-60 minutes. The filling pipette was carefully pulled out (outside-out patch) and brain slices were left to incubate for 20-120 minutes at room temperature. Just before optical recordings the cells were re-patched with dye-free pipette at the physiological temperature (34° C.).
Voltage-sensitive dye imaging was performed on a Zeiss Axioskope 2FS microscope equipped with NeuroCCD camera (RedShirtImaging). We used Zeiss 40× objective IR-Achroplan 0.80 W. The size of the square visual field captured by NeuroCCD camera was 384×384 um. In the place of the arc lamp (normally used for epi-illumination), we inserted a 200 μm fiber optic guide with a collimator. Laser beam was focused on the other side of the fiber optic guide using a microscope objective-like lens. This arrangement produced a motionless spot of laser light (˜25 μm in diameter) at the object plane. An illuminated section of the brain slice, projected onto the NeuroCCD camera, covered approximately 25 pixels when used with 40× objective lens. At this magnification, one pixel sampled a 4.8×4.8 square in the object plane. A region of interest (ROI) was brought into the laser spot using X-Y microscope platform. The laser beam was interrupted by an electro-programmable shutter (Uniblitz®). Attention was made to limit the exposure time during the recording and positioning of the neuron.

[2] = One-photon absorption and emission spectra in multilamellar lipid vesicles, water and ethanol; type: physicochemical
From the text: […] The column indicating relative signal change for one-photon fluorescence also lists the excitation light source used and the lower bounds of the long-pass emission detected.
Absorption and emission spectra were obtained for a series of dyes with different acceptors: pyridinium (PY-1261), quinolinium (PY-212), and acridinium (PY-2240).

[3] = system: layer V pyramidal neurons; experiment: Toxicity / photodynamic damage: AP half-width during optical recording; details: Sprague-Dawley, rat
From the text: S. Antic, G. Major, D. Zecevic, “Fast optical recordings of membrane potential changes from dendrites of pyramidal neurons”, Journal of Neurophysiology, 82, 1615-1621 (1999). Accumulation of reactive oxygen species (free radicals), which interact with and damage neuronal plasmalemma, is the most likely mechanism. J. B. Feix, B. Kalyanaraman, “Production of singlet oxygen-derived hydroxyl radical adducts during merocyanine-540-mediated photosensitization: analysis by ESR-spin trapping and HPLC with electrochemical detection”, Archives of Biochemistry & Biophysics, volume 291, pages 43-51 (1991). High intensity illumination during optical recording sessions excites large number of membrane bound dye molecules. Since styryl dyes have tendency to penetrate deep into the lipid bilayers (E. Fluhler, V. G. Burnham, L. M. Loew, “Spectra, membrane binding, and potentiometric responses of new charge shift probes”, Biochemistry, 24, 5749-5755 (1985)), free radicals are produced literally inside the neuronal membrane. […] S. D. Antic, “Action potentials in basal and oblique dendrites of rat neocortical pyramidal neurons”, Journal of Physiology 550, 35-50 (2003). […] Since dye loading was always done at room temperature (21° C.) and re-patching at 34° C., we could not compare AP shape and size before and after dye loading. Therefore, in order to check the extent of dye toxicity we designed a group of experiments in which neurons were injected and incubated at 34° C. During the dye injection (loading phase), in regular time intervals (3-5 min) direct current pulses was used to slowly charge the membrane and trigger an AP (FIG. 14A). Identical current pulse was then applied at the end of dye loading phase, just before the electrode pull-out (FIG. 14B) and after the 50-90 min incubation period (FIG. 14C, re-patch). […] To avoid AP jitter in optical recordings we used shorter and stronger current pulses (FIG. 14D, E, F, insets). However, from time to time we returned to AP-testing current injection protocol (FIG. 14D, E), while keeping the count on the number of cumulative high-intensity light exposures (# sweeps). […] Additional experimental details can be found in Ping Yan, Aifang Xie, Meide Wei, and Leslie M. Loew, “Amino(oligo)thiophene-Based Environmentally Sensitive Biomembrane Chromophores”, Journal of Organic Chemistry, published on web Jul. 30, 2008.

[4] = system: NIE-115 mouse neuroblastoma; experiment: Time-dependence (kinetics) of SHG and 2PF signal change after voltage-clamp step; type: cell-based; details: time resolution 5 ms
From the text: For full details of our non-linear imaging microscope, we refer the reader to previously published descriptions. A. C. Millard, P. J. Campagnola, W. Mohler, A. Lewis, and L. M. Loew, “Second Harmonic Imaging Microscopy,” Meth. Enzymol. 361, 47-69 (2003); Millard, A. C., L. Jin, and L. M. Loew, “Second Harmonic Generation Imaging Microscopy with a High Power Ultrafast Fiber Laser,”Commercial and Biomedical Applications of Ultrafast Lasers. 5714-5716, 92-98 (2005); A. C. Millard, L. Jin, M.-D. Wei, J. P. Wuskell, A. Lewis, and L. M. Loew, “Sensitivity of Second Harmonic Generation from Styryl Dyes to Transmembrane Potential,” Biophys. J. 86, 1169-1176 (2004). Our current microscope combines a Fluoview (Olympus) scan-head and an Axiovert (Zeiss) inverted microscope constructed for multiple imaging methodologies including wide-field, one-photon excitation fluorescence imaging, as well as SHG and 2PF imaging. Our laser sources include a Mira (Coherent) Ti:sapphire laser and a Femtopower (Fianium) fiber laser operating at 1064 nm. Millard, A. C., L. Jin, and L. M. Loew, “Second Harmonic Generation Imaging Microscopy with a High Power Ultrafast Fiber Laser,”Commercial and Biomedical Applications of Ultrafast Lasers. 5714-5716, 92-98 (2005). For excitation, we routinely use an IR-Achroplan (Zeiss) 40×, 0.8 NA water-immersion objective though for shorter wavelengths we also use an A-Plan (Zeiss) 40×, 0.65 NA air objective. Fluorescence is imaged (for linear imaging) or collected (for non-linear imaging) back through the excitation objective, while SHG is collected in the forward, transmitted light direction by a condenser, either 0.8 NA or 0.55 NA (Zeiss). For optimal collection, the numerical aperture of the condenser should be at least 1/√2 of the numerical aperture of the excitation objective (L. Moreaux, O. Sandre, S. Charpak, M. Blanchard-Desce, and J. Mertz, “Coherent Scattering in Multi-Harmonic Light Microscopy,” Biophys. J. 80, 1568-1574 (2001); L. Moreaux, O. Sandre, and J. Mertz. “Membrane Imaging by Second Harmonic Generation Microscopy,” J. Opt. Soc. Am. B. 17, 1685-1694 (2000)), though in practice a condenser of slightly lower numerical aperture will often suffice. Since the wavelength of second harmonic light is precisely half that of the excitation light, the choice of filter for SHG imaging is greatly simplified and the primary concern is the blocking of the excitation light that is also transmitted through the sample as well as fluorescence that is emitted forwards.
NIE-115 mouse neuroblastoma were cultured in DMEM with 10% fetal bovine serum and 1% antibiotic-antimycotic (Invitrogen, Carlsbad, Calif.) in a 60 mm plastic dish (353002, Becton Dickinson, Franklin Lakes, N.J.). The culture was maintained at 37° C. with 5% CO2 for a period of 48 hours prior to experimentation.
For experimentation the growth medium was replaced with 3 mL of Earle's Balanced Salt Solution (EBSS, Sigma, St. Louis, Mo.) with 20 mM HEPES (Merck Biosciences AG, Laufelfingen, Switzerland). The internal buffer, injected into the patch pipette, was a potassium aspartate (140 mM, Sigma, St. Louis, Mo.), sodium chloride (5 mM, Sigma, St. Louis, Mo.) and HEPES (10 mM) solution at a pH of 7.35. The pH was adjusted with potassium hydroxide and hydrochloric acid.
For characterizing the voltage-sensitivity of SHG and 2PF, we used a slow (˜0.1 Hz) switching protocol as previously described (A. C. Millard, P. J. Campagnola, W. Mohler, A. Lewis, and L. M. Loew, “Second Harmonic Imaging Microscopy,” Meth. Enzymol. 361, 47-69 (2003); Millard, A. C., L. Jin, and L. M. Loew, “Second Harmonic Generation Imaging Microscopy with a High Power Ultrafast Fiber Laser,” Commercial and Biomedical Applications of Ultrafast Lasers. 5714-5716, 92-98 (2005); A. C. Millard, L. Jin, M.-D. Wei, J. P. Wuskell, A. Lewis, and L. M. Loew, “Sensitivity of Second Harmonic Generation from Styryl Dyes to Transmembrane Potential,” Biophys. J. 86, 1169-1176 (2004)) with a 50 mV step. […]

[5] = system: NIE-115 mouse neuroblastoma; experiment: SHG and 2PF voltage sensitivity, 50 mV step, slow switching protocol on patch-clamped neuroblastoma cell; type: cell-based; details: comparator named in the sentence (PY-1266; PY-1268)
From the text: For full details of our non-linear imaging microscope, we refer the reader to previously published descriptions. A. C. Millard, P. J. Campagnola, W. Mohler, A. Lewis, and L. M. Loew, “Second Harmonic Imaging Microscopy,” Meth. Enzymol. 361, 47-69 (2003); Millard, A. C., L. Jin, and L. M. Loew, “Second Harmonic Generation Imaging Microscopy with a High Power Ultrafast Fiber Laser,”Commercial and Biomedical Applications of Ultrafast Lasers. 5714-5716, 92-98 (2005); A. C. Millard, L. Jin, M.-D. Wei, J. P. Wuskell, A. Lewis, and L. M. Loew, “Sensitivity of Second Harmonic Generation from Styryl Dyes to Transmembrane Potential,” Biophys. J. 86, 1169-1176 (2004). Our current microscope combines a Fluoview (Olympus) scan-head and an Axiovert (Zeiss) inverted microscope constructed for multiple imaging methodologies including wide-field, one-photon excitation fluorescence imaging, as well as SHG and 2PF imaging. Our laser sources include a Mira (Coherent) Ti:sapphire laser and a Femtopower (Fianium) fiber laser operating at 1064 nm. […] Fluorescence is imaged (for linear imaging) or collected (for non-linear imaging) back through the excitation objective, while SHG is collected in the forward, transmitted light direction by a condenser, either 0.8 NA or 0.55 NA (Zeiss). […]

[6] = One-photon fluorescence relative signal change per 100 mV; details: excitation / long-pass emission (nm) given
From the text: The left-most data columns of Table 1 are the absorption and emission maxima for one photon fluorescence in soybean multi-lamellar lipid vesicles used to mimic the membrane environment. The column indicating relative signal change for one-photon fluorescence also lists the excitation light source used and the lower bounds of the long-pass emission detected.

[7] = one photon, soybean multi-lamellar lipid vesicles

CCN(CC)c1ccc2cc(/C=C/C=C/c3cc[n+](CCC[N+](C)(C)C)c4ccccc34)ccc2c1.[Br-].[Br-] [JPW-4090, Di-2-ANBDQPQ]
polarity of optical signal at 532 nm excitation [1]: positive signals
polarity of optical signal at 658 nm excitation [1]: positive signals
optical signal amplitude of blue dye relative to red dye JPW-3028 ([1]; FIG. 11): approximately 3 times
AP-associated optical signal, single example (base line-to-peak) ([1]; FIG. 11, basal dendrite): 17 % ΔF/F
dF/F at 633 nm ([1]; backpropagating AP, basal dendrites 80-150 μm from soma, laser spot 633 nm, %): 12.70 ± 3.59%
dF/F at 658 nm ([1]; backpropagating AP, basal dendrites 80-150 μm from soma, laser spot 658 nm, %): 11.03 ± 2.24%
voltage sensitivity compared with red dye ([1]; basal dendrites 80-150 μm from soma): better sensitivity than red dye JPW-3028
S/N ratio at 633 nm ([1]; laser spot 633 nm): 5.48 ± 2.01
S/N ratio at 658 nm ([1]; laser spot 658 nm): 6.93±1.88
Absorbance ethanol ([2]; ethanol): 584 nm
Emission ethanol ([2]; ethanol): 812 nm
Absorbance MLV ([2]; multilamellar lipid vesicles): 526 nm
Emission MLV ([2]; multilamellar lipid vesicles): 702 nm
Absorbance water ([2]; water): 490 nm
slope of linear fit, AP half-width versus cumulative sweeps [3]: 0.0003
sweeps recorded per session on average [3]: 114±67 sweeps
time since beginning of dye injection without AP broadening [3]: ≥ 192 min

CC[N+](CC)(CC)CCC[n+]1ccc(/C=C/c2ccc(-c3ccc(N(C)C)s3)s2)cc1 [PY-1282]
SHG Kinetics (exponential time constant) [4]: 16 ± 1 ms
SHG signal sensitivity relative to another dye [5]: three-fold increase
1PF Change (ΔF/F-100 mv) [6]: 8.0E−002; 640/>715 ΔF/F-100 mv
1PF Abs. Max [2, 7]: 530 nm
1PF Em. Max [2, 7]: 676 nm
